Reference: US20060160086A1, “Method for continuous detection of an analyte, trifunctional detecting reagent used and detecting device” (Commissariat A L'Energie Atomique, priority 2002, published 2006)
Ends that are not written are not given here. * marks the point of attachment. Biotin = O=C1N[C@H]2[C@H](CS[C@H]2CCCCC(=O)*)N1

What was measured:
monoclonal antibody SP31 = conditions: peptide analog of substance P comprising an alanine at position 10 [Ala^10]; cited from earlier work
neutravidin = target: T1, neutravidin (Gallus gallus, UniProt P02701); assay: Attachment of the fluorescein-labeled tripod Y to neutravidin-coated microtitration plates (fluorescence); assay type: binding; conditions: neutravidin-coated microplate, 3 hours at ambient temperature, excitation 485 nm / emission 530 nm
T1 construct: purchased Pierce 31 000
T1 sequence (P02701 25-152): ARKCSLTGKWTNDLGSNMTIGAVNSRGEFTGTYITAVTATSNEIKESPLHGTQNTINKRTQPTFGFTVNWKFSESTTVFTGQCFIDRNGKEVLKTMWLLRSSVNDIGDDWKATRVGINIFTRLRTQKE
Description: 100 μl of a solution of neutravidin (sold under the reference 31 000 by the company Pierce) at 5 μg/ml in a 0.1 M potassium phosphate buffer, pH 7.4 are deposited into the wells of black microplates sold under the name High Bind Matrix by the company VWR (reference 80120696). After 16 hours at ambient temperature, the plates are washed with washing buffer and then saturated by depositing 300 μl/well of saturation buffer for 16 hours at ambient temperature. The plates are stored with the same buffer (300 μl/well) at 4° C.
A dilution range for the tripod Y (labeled with fluorescein) synthesized above in example 4, in 0.1 M potassium phosphate buffer, pH 7.4, is prepared by producing a first point of the range at a concentration of 0.5 μM, and then 4 successive ⅓ dilutions (i.e. 0.167 μM; 0.055 μM; 0.0185 μM and 6.2×10^−3 μM). […] The plate is read with an analyst AD system fluorimeter (LJL Biosystem) for reading microplates, at an excitation wavelength of 485 nm and at an emission wavelength of 530 nm, which are the excitation and emission wavelengths corresponding to fluorescein.
The curves obtained with neutravidin (black square) and without neutravidin (black triangle: control) are represented in the attached FIG. 2, in which the fluorescence (in arbitrary units) is expressed as a function of the concentration of tripod Y in accordance with the invention (μM).

Row | Substance | cross reactivity with substance P for the monoclonal antibody SP31 (monoclonal antibody SP31) | concentration of tripod up to which fluorescence increases proportionally, then plateau (saturation of the neutravidin binding sites) (neutravidin)
1 | KSSK(Biotin)RPAPQQFFGAM-NH2 [substance P analog] | 13% | 
2 | tripod: substance P analog (SEQ ID No. 2) labeled with fluorescein; biotin for attachment to neutravidin support (GATCTGCTGGCATCT; fluorescein label and biotin, positions not given here) |  | 0.17 µM
